Values of other authors, collected in patent US20210227865A1, “LOW GLYCEMIC COMPOSITION AND METHODS OF MAKING AND USING THEREOF” (Seattle Gummy Company, priority 2018, published 2021).

What was measured:
[1] = for sweetness compared with sucrose (in words): relative to sucrose (table sugar)
[2] = in vivo
[3] = FIG. 3 (trehalose), FIG. 4 (isomaltulose)

| SMILES | sweetness compared with sucrose (in words) [1] | GI value [2] | also measured |
| --- | --- | --- | --- |
| O=C(CO)[C@H](O)[C@@H](O)[C@H](O)CO [Sorbose, sorbose] | equivalent to sucrose in sweetness |  |  |
| OC[C@H]1O[C@H](OC[C@H]2OC(O)(CO)[C@@H](O)[C@@H]2O)[C@H](O)[C@@H](O)[C@@H]1O (stereo partly drawn) [Isomaltulose, isomaltulose] |  | about 30 | effect on blood glucose levels (in words) [3]: does not cause a spike in glucose levels |
| OC[C@H]1O[C@H](O[C@H]2O[C@H](CO)[C@@H](O)[C@H](O)[C@H]2O)[C@H](O)[C@@H](O)[C@@H]1O [trehalose] |  |  | effect on blood glucose levels (in words) [3]: does not cause a spike in glucose levels |
| O=C(CO)[C@@H](O)[C@@H](O)[C@H](O)CO [Tagatose, tagatose] | nearly as sweet as sucrose |  |  |
| O=C(CO)[C@H](O)[C@H](O)[C@H](O)CO [Psicose, psicose] | identical to sucrose |  | sweetness relative to sucrose ([1]; relative to sucrose): 70% |
| OC[C@H]1O[C@@](CO)(O[C@H]2O[C@H](CO)[C@@H](O)[C@H](O)[C@H]2O)[C@@H](O)[C@@H]1O [sucrose] |  | 63 |  |
| O=C(CO)[C@@H](O)[C@H](O)[C@H](O)CO [fructose] |  | 19 |  |
